Measured values as given in the supplement of paper PMC10307832.

Tests used:
Experiment in all cases: relative viability (nuclei count vs DMSO), 5 days (fraction); higher = more cells survive
CUDC-101 + Linsitinib = compound: C#Cc1cccc(Nc2ncnc3cc(OC)c(OCCCCCCC(=O)NO)cc23)c1 [CUDC-101] + C[C@]1(O)C[C@@H](c2nc(-c3ccc4ccc(-c5ccccc5)nc4c3)c3c(N)nccn32)C1 [Linsitinib] (partner 1 µM)
How it was run: (§1)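 Relative viability divides the nuclei count in treated wells by that in vehicle wells. Lung cancer cell lines were seeded in 1536-well plates, dosed by pin tool the next day, and fixed and stained after 5 days in one step with final 0.05% Triton X-100, 1% formaldehyde and 1 ug/ml Hoechst. Dosing was a single drug or a fixed anchor-drug dose plus five library-drug doses (not always all listed) in √10 steps, and values are medians of duplicate plates imaged at 4×.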

CUDC-101 + Olaparib = compound: C#Cc1cccc(Nc2ncnc3cc(OC)c(OCCCCCCC(=O)NO)cc23)c1 [CUDC-101] + O=C(c1cc(Cc2n[nH]c(=O)c3ccccc23)ccc1F)N1CCN(C(=O)C2CC2)CC1 [Olaparib] (partner 8 µM)
How it was run: as §1

NVP-TAE684 + OSI-027 = compound: COc1cc(N2CCC(N3CCN(C)CC3)CC2)ccc1Nc1ncc(Cl)c(Nc2ccccc2S(=O)(=O)C(C)C)n1 [NVP-TAE684] + COc1cccc2cc(-c3nc([C@H]4CC[C@H](C(=O)O)CC4)n4ncnc(N)c34)[nH]c12 [OSI-027] (partner 0.5 µM)
How it was run: as §1

NVP-TAE684 + Decitabine = compound: COc1cc(N2CCC(N3CCN(C)CC3)CC2)ccc1Nc1ncc(Cl)c(Nc2ccccc2S(=O)(=O)C(C)C)n1 [NVP-TAE684] + Nc1ncn([C@H]2C[C@H](O)[C@@H](CO)O2)c(=O)n1 [Decitabine] (partner 2 µM)
How it was run: as §1

Cell Line UMC-11 has a relative viability (CUDC-101 + Linsitinib; first compound 0.01 µM) of 1.07, a relative viability (CUDC-101 + Linsitinib; first compound 0.03162 µM) of 0.97 and a relative viability (CUDC-101 + Linsitinib; first compound 0.1 µM) of 1.03. For the same cell line, the relative viability (CUDC-101 + Linsitinib; first compound 0.3162 µM) was 0.864, the relative viability (CUDC-101 + Linsitinib; first compound 1 µM) was 0.208 and the relative viability (CUDC-101 + Olaparib; first compound 0.01 µM) was 0.29. It also gave a relative viability (CUDC-101 + Olaparib; first compound 0.03162 µM) of 0.707, a relative viability (CUDC-101 + Olaparib; first compound 0.1 µM) of 0.377 and a relative viability (CUDC-101 + Olaparib; first compound 0.3162 µM) of 0.237. The relative viability (CUDC-101 + Olaparib; first compound 1 µM) was 0.119, the relative viability (NVP-TAE684 + OSI-027; first compound 0.2 µM) was 0.412 and the relative viability (NVP-TAE684 + OSI-027; first compound 0.6325 µM) was 0.438. The relative viability (NVP-TAE684 + OSI-027; first compound 2 µM) was 0.282, the relative viability (NVP-TAE684 + Decitabine; first compound 0.2 µM) was 0.582 and the relative viability (NVP-TAE684 + Decitabine; first compound 0.6325 µM) was 0.581. For the same cell line, the relative viability (NVP-TAE684 + Decitabine; first compound 2 µM) was 0.346.
